Test results: patent publication US10376550B2, “Nutraceutical composition and methods of use” (Dacy Tech Party Ltd., priority 2007, dated 2019)

Key:
[1] = test system: prostaglandin PGF2α levels; assay: PGF2α levels in IL-1β stimulated NHAC cells; assay type: cell-based; details: IL-1β 10 ng/ml, 24 hours, fractions 64-32 μg/ml
Procedure: (§1) To study the anti-inflammatory activities, assays Fr 1, Fr i, Fr V and Fr Vi were selected and tested at a concentration of ≤64 μg/ml. The assays carried out to measure the 1) Nitric Oxide (NO) levels, 2) prostaglandin PGE2 levels, 3) prostaglandin PGF2α levels. NHAC cells at passage 3, were stimulated first with proinflammatory cytokine IL-1β at a predetermined concentration 10 ng/ml overnight, NHAC Cells were then treated with fractions in the presence of IL-1β 10 ng/ml for 24 hours and cell culture supernatant was collected to measure NO, PGE2 and PGF2α levels. Griess Reagent Kit for Nitrite Determination (Molecular Probes, Invitrogen) was used as per kit instructions. For estimation of PGs, High Sensitivity PGE2 & PGF2α EIA kits (Assay Designs Inc.) were used.

[2] = test system: prostaglandin PGE2 levels; assay: PGE2 levels in IL-1β stimulated NHAC cells; assay type: cell-based; details: IL-1β 10 ng/ml, 24 hours, fractions ≤64 μg/ml
Procedure: as §1

SMILES: COc1ccc2c(c1)c(CC(=O)O)c(C)n2C(=O)c1ccc(Cl)cc1 [Indomethacin]
- IL-1β induced PGF2α levels [1]: significantly reduced
- IL-1β induced PGE2 levels [2]: significantly reduced
